Assay results published in US10760110B2, “Antibiotic testing and screening system” (priority 2017, dated 2020).
Values after ≈ are worked out from the molar mass of the structure shown. Read-outs that look alike come from different tables or passages of the source.

What was measured:
[1] = test system: K. pneumoniae NVT1001 strains with aminoglycoside resistance plasmids; assay: Etest MIC of aminoglycosides, aminoglycoside-modifying enzyme or 16S rRNA methylase (Table 13); assay type: cell-based, Klebsiella pneumoniae; details: for effects on the MIC / resistance: production of 16S rRNA methylase, ArmA and RmtB
Protocol: DNA fragments of the resistance genes along with their flanking regions were amplified from clinical plasmids via PCR with specific primer pairs. The resulting PCR fragments were digested and then cloned into the plasmid pACYC177 or pACYC184. The resulting plasmids were then transformed into K. pneumoniae strain NVT1001 via electroporation. The recombinant bacteria were plated onto LB agar plates containing kanamycin (50 mg/L) or chloramphenicol (50 mg/L), and the presence of the cloned gene was confirmed via PCR and DNA sequencing.
(§1) The MICs of antibiotics were determined using the Etest (Biodisk AB, Sweden) according to the manufacturer's instructions. The MICs from the Etest, which fall between standard two-fold dilutions, were rounded up to the next highest two-fold value. The MICs of ceftazidime and cefotaxime against K. pneumoniae NVT1001 harbouring the pACYC177 plasmid with blaOXA-48 were further determined using a broth microdilution test according to the recommendations of the CLSI,^25 and the results were interpreted according to the breakpoints established by the CLSI in 2017.^25 Meanwhile, due to the lack of CLSI breakpoints in 2016 and 2017, the results for cephalothin were interpreted according to the breakpoints established by the CLSI in 2015,^26 and the results for moxifloxacin were interpreted according to the breakpoints established by the EUCAST in 2017.^27

[2] = test system: A. baumannii KW1 strains with aminoglycoside resistance plasmids; assay: Etest MIC of aminoglycosides, aminoglycoside-modifying enzyme or 16S rRNA methylase (Table 19); assay type: cell-based, Acinetobacter baumannii; details: for effects on the MIC / resistance: production of 16S rRNA methylase, ArmA
Protocol: DNA fragments of the resistance genes along with their flanking regions were amplified from clinical plasmids via PCR with specific primer pairs. The resulting PCR fragments were digested and then cloned into the plasmid pYMAb5 or pYMAb5Tc. The resulting plasmids were then transformed into A. baumannii KW1 via electroporation.
as §1

[3] = test system: K. pneumoniae NVT1001 and its ΔompK35/36 and/or ΔramR mutants; assay: Etest MIC, OmpK35/36 loss and AcrAB-TolC overexpression (ΔramR) strains (Table 6); assay type: cell-based, Klebsiella pneumoniae; details: Klebsiella pneumoniae
Method in brief: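 Ceftazidime and cefotaxime were tested by CLSI broth microdilution on the blaOXA-48 pACYC177 transformant of NVT1001, using CLSI 2017 breakpoints. Parent, porin-deleted (ΔompK35/36) and ΔramR strains were tested by Etest, with values between two-fold dilutions rounded up.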

[4] = NVT1001, no supplemental plasmid
[5] = NVT1001 with AAC(3)-IId on pACYC184
[6] = NVT1001 with AAC(3)-IVa on pACYC184
[7] = NVT1001 with AAC(6′)-Ib-cr on pACYC184
[8] = NVT1001 with ANT(2″)-Ia on pACYC184
[9] = NVT1001 with ANT(3″)-Ia on pACYC184
[10] = NVT1001 with APH(3′)-IIa on pACYC184
[11] = NVT1001 with APH(3′)-Ia on pACYC184
[12] = NVT1001 with StrA-StrB on pACYC184
[13] = KW1 with AAC(3)-IIa on pYMAb5Tc
[14] = KW1 with ANT(2”)-Ia on pYMAb5Tc
[15] = KW1 with ANT(3”)-Ia on pYMAb5Tc
[16] = KW1 with APH(3')-Ia on pYMAb5Tc
[17] = KW1 with APH(3')-VIa on pYMAb5Tc
[18] = KW1 with shuttle vector pYMAb5Tc
[19] = ΔramRΔ35/36, ΔramRΔompK35/36 mutant

SMILES | MIC [1, 4] | MIC [1, 5] | MIC [1, 6] | MIC [1, 7] | MIC [1, 8] | MIC [1, 9] | MIC [1, 10] | MIC [1, 11] | MIC ([1]; NVT1001 with ArmA on pACYC184) | MIC ([1]; NVT1001 with RmtB on pACYC184) | MIC [1, 12] | MIC ([2]; KW1, no supplemental plasmid) | MIC [2, 13] | MIC [2, 14] | MIC [2, 15] | MIC [2, 16] | MIC [2, 17] | MIC ([2]; KW1 with ArmA on pYMAb5Tc) | MIC [2, 18] | MIC ([3]; WT, NVT1001, read-out: MIC) | also measured
CN[C@@H]1[C@H](O[C@H]2[C@H](O[C@H]3[C@H](O)[C@@H](O)[C@H](N=C(N)N)[C@@H](O)[C@@H]3N=C(N)N)O[C@@H](C)[C@]2(O)C=O)O[C@@H](CO)[C@H](O)[C@H]1O [STR] | 2 µg/mL | 2 µg/mL | 2 µg/mL | 2 µg/mL | 2 µg/mL | 16 µg/mL | 2 µg/mL | 2 µg/mL | 2 µg/mL | 2 µg/mL | 1024 µg/mL | 12 µg/mL | 8 µg/mL | 8 µg/mL | 8 µg/mL | 12 µg/mL | 12 µg/mL | 8 µg/mL | 12 µg/mL |  | 
CN[C@@H]1[C@H](O)[C@H](NC)[C@H]2O[C@@]3(O)C(=O)C[C@@H](C)O[C@H]3O[C@@H]2[C@H]1O [Spectinomycin] |  |  |  |  |  |  |  |  |  |  |  |  |  |  |  |  |  |  |  | 16 µg/mL (≈ 48.1 µM) | MIC ([3]; Δ35, ΔompK35 mutant): 16 µg/mL (≈ 48.1 µM); MIC ([3]; Δ35/36, ΔompK35/36 mutant): 16 µg/mL (≈ 48.1 µM); MIC ([3]; Δ36, ΔompK36 mutant): 16 µg/mL (≈ 48.1 µM); MIC ([3]; ΔramR mutant): 16 µg/mL (≈ 48.1 µM); MIC ([3]; ΔramRΔ35, ΔramRΔompK35 mutant): 16 µg/mL (≈ 48.1 µM); MIC [3, 19]: 16 µg/mL (≈ 48.1 µM); MIC ([3]; ΔramRΔ36, ΔramRΔompK36 mutant): 16 µg/mL (≈ 48.1 µM); effects on the MIC / resistance [1]: not associated with observable effects; effects on the MIC / resistance [2]: not associated with increase effects
[H]/N=C(/N)N[C@H]1[C@H](O)[C@@H](O)[C@H](O[C@@H]2O[C@@H](C)[C@](O)(C=O)[C@H]2O[C@@H]2O[C@@H](CO)[C@H](O)[C@@H](O)[C@@H]2NC)[C@@H](N/C(N)=N\[H])[C@@H]1O [Streptomycin] |  |  |  |  |  |  |  |  |  |  |  |  |  |  |  |  |  |  |  | 2 µg/mL (≈ 3.44 µM) | MIC ([3]; Δ35, ΔompK35 mutant): 4 µg/mL (≈ 6.88 µM); MIC ([3]; Δ35/36, ΔompK35/36 mutant): 4 µg/mL (≈ 6.88 µM); MIC ([3]; Δ36, ΔompK36 mutant): 4 µg/mL (≈ 6.88 µM); MIC ([3]; ΔramR mutant): 2 µg/mL (≈ 3.44 µM); MIC ([3]; ΔramRΔ35, ΔramRΔompK35 mutant): 2 µg/mL (≈ 3.44 µM); MIC [3, 19]: 4 µg/mL (≈ 6.88 µM); MIC ([3]; ΔramRΔ36, ΔramRΔompK36 mutant): 4 µg/mL (≈ 6.88 µM); effects on the MIC / resistance [1]: not associated with observable effects; effects on the MIC / resistance [2]: not associated with increase effects; effects on the MIC ([2]; production of aminoglycoside-modifying enzymes): no increase effects
NC[C@H]1O[C@H](O[C@H]2[C@H](O)[C@@H](O[C@H]3O[C@H](CO)[C@@H](O)[C@H](N)[C@H]3O)[C@H](N)C[C@@H]2N)[C@H](N)C[C@@H]1O [TOB] | 0.5 µg/mL | 4 µg/mL | >256 µg/mL | 8 µg/mL | 64 µg/mL | 0.5 µg/mL | 0.5 µg/mL | 1 µg/mL | >256 µg/mL | >256 µg/mL | 0.5 µg/mL | 0.5 µg/mL | 0.5 µg/mL | 2 µg/mL | 0.5 µg/mL | 0.5 µg/mL | 0.5 µg/mL | >256 µg/mL | 0.5 µg/mL |  | 
